Consider six molecules from patent US7132296B2, “Method for assaying the antioxidant capacity of a sample” (Medical Products Manufacturing, LLC, priority 2002, dated 2006).

Assay [1] is described as follows: ORAC assay with B-phycoerythrin probe (ORACB-PE / ORACPE). In kind it is biochemical. Particulars: calculated based on equation 2, n > 3. As to the method:
In accordance with the published ORAC assay, a sample such as fresh fruit, blood senun, or an additive or supplement in powder form is prepared for extraction and extracted first in water and then in acetone. A protein based fluorescent probe, namely B-phycoerythrin (B-PE) is then added to the extract. A standard, having high antioxidant capacity, such as diluted grape seed extract (GSE) or TROLOX® (6-hydroxy-2,5,7,8-tetramethylchroman-2-carboxylic acid), a water soluble analog of vitamin E, is added to the extract to provide a comparison of the antioxidant capacity of the sample to the standard. The extract, the standard, and a blank sample are then loaded into the COBAS FARA II device and an initial fluorescence emission of the probe is taken. Next, AAPH, (2,2′-azobis (2-amidino-propane) dihydrochloride), which generates free radicals upon heating, is added to the extract of the sample and the standard and fluorescence emission readings are taken until a zero value is reached for the extract of the sample. To measure the protective effect of an antioxidant using the ORAC assay, the area under the fluorescence decay curve (AUC) of the sample is calculated and compared to that of the blank in which no antioxidant is present.
After the fluorescent readings are taken, the ORAC values are calculated by using a regression equation between standard concentration 62, FIG. 7, and the net area under the B-PE decay curve of sample 60. ORAC values are typically expressed in μmole Trolox equivalent per liter or per gram.
(§1) In accordance with the subject invention the area under the curve (AUC) for the sample, standard, and blank are calculated as: AUC=0.5+f1/f0+f2/f0+f3/f0+f4/f0+ . . . +fi/f0 (1) Where f0=initial fluorescence reading at 0 minute, and fi is the fluorescence reading at time i. Typically, equation (1) is solved and the data analyzed in an electronic spreadsheet such as Microsoft Excel or other similar products or computer programs. The AUC is calculated for sample 60, standard 62 and blank 64. The net AUC is obtained by subtracting the AUC of blank 64 from sample 60. The relative ORAC value for sample 60, expressed in Trolox equivalents is calculated as: Relative ORAC value=[(AUCsample−AUCBlank)/(AUCTrolox−AUCBlank)]×(molarity of Trolox/molarity of sample) (2)

Assay [2] is described as follows: ORAC assay with fluorescein probe (ORACFL), peroxyl radical scavenging assay. It counts as biochemical. The conditions noted are these: for Ratio (ORACFL/ORACB-PE): chemicals, Table 1; for ORACFL: fluorescein probe, calculated based on equation 2, n > 3. The procedure:
as §1
Flavonoid compounds and β-phycoerythrin were purchased from Sigma (St. Louis, Mo.). Trolox, ascorbic acid and disodium fluorescein were obtained from Aldrich (Milwaukee, Wis.). 2,2′-azobis (2-amidino-propane) dihydrochloride (AAPH) was purchased from Wako Chemicals USA (Richmond, Va.). Various analyzed samples were also obtained. ORAC analyses were performed on a COBAS FARA II analyzer (Roche Diagnostic System Inc., Branchburg, N.J.; Excitation wavelength=493 nm and emission filter=515 nm).
Ascorbic acid and flavonoids were directly dissolved in acetone/water mixture (50:50, v/v) and diluted with pH 7.4 phosphate buffer for analysis. The solid samples were initially ground in a mechanical mill to produce a fine power; then 0.5 grams were accurately weighed and 20 mL of acetone/water (50:50, v/v) extraction solvent was added. The mixture was shaken at 400 RPM at room temperature on an orbital shaker for one hour. The extracts were centrifuged at 14000 rpm for 15 min, and the supernatant was ready for analysis after appropriate dilution with buffer solution. For liquid samples, a 20 mL aliquot of sample was centrifuged for 15 min and the supernatant was ready for analysis after appropriate dilution. Blood plasma or serum was diluted 100 to 200 fold with pH 7.4 phosphate buffer before analysis. To measure the ORAC in non-protein fraction, protein was removed using 0.5 N perchloric acid (1:1; v:v; plasma:acid), the samples were then centrifuged at 140,000×g for 10 min at 4° C., and the supernatants were removed as the serum nonprotein fractions and appropriately diluted with pH 7.4 phosphate buffer before the analysis.
Peroxyl radical scavenging assay. The COBAS FARA II was programmed to use a two-reagent system (Reaction Mode 3, P-I-SRI-A). The reaction mode pipetted and transferred the sample (20 μL), phosphate buffer (5 μL, 0.75 mM, pH 7.4), and main reagent (365 μL FL, 4.8×10^−8 M) into the main reagent wells of their respective cuvette rotor positions. With spinning of the rotor, the reagents are mixed and incubated for 30 s before recording the initial fluorescence (f0). After the rotor stops spinning, a start reagent (SRI), 8 μL of APPH (0.64M) plus 2 μL of the phosphate buffer is pipetted into the appropriate start reagent well in the curvette rotor. Next, the analyzer starts spinning, mixing of the sample/FL with AAPH reagent and the oxidative reaction starts. […] Between transfers, both sample and reagent transfer pipettes are washed with clean solution to eliminate sample cross contamination. Fluorescence readings are taken at 0.5 s and then every minute thereafter (f1, f2, f3 . . . ) for a duration of 30 min. If the fluorescence of the final reading has not declined by >95% from the first reading, the dilution of sample is adjusted accordingly and the sample is reanalyzed. To determine the maximum voltage for the photomultiplier tube, the AAPH reagent is omitted and is replaced with buffer, and the analysis is run for 10 min. FL and AAPH were prepared in a 0.75 mM phosphate buffer. FL working solution was routinely preincubated in a waterbath at 37° C. for 15 min before loading into the COBAS reagent rack.

Regarding `O=c1c(O)c(-c2ccc(O)c(O)c2)oc2cc(O)cc(O)c12` [Quercetin], in assay [1], the ORACB-PE is 2.07 ± 0.05 relative Trolox equivalent. In assay [2], the “Ratio (ORACFL/ORACB-PE)” value stood at 2.11 and the ORACFL is recorded as 4.38 ± 0.22 relative Trolox equivalent.
For `C[C@@H]1O[C@@H](Oc2c(-c3ccc(O)c(O)c3)oc3cc(O)cc(O)c3c2=O)[C@H](O)[C@H](O)[C@H]1O` [Quercetrin], the ORACB-PE in assay [1] was 2.70 ± 0.18 relative Trolox equivalent. Also, in assay [2], the “Ratio (ORACFL/ORACB-PE)” value worked out at 2.15 and the ORACFL is 5.87 ± 0.49 relative Trolox equivalent.
The corresponding values for `N[C@@H](CCC(=O)N[C@@H](CS)C(=O)NCC(=O)O)C(=O)O` [Glutathione] are 0.32 ± 0.01 relative Trolox equivalent, 1.94 and 0.62 ± 0.02 relative Trolox equivalent.
The corresponding values for `O=C(O)/C=C/c1ccc(O)c(O)c1` [Caffeic Acid] are 1.40 ± 0.09 relative Trolox equivalent, 3.12 and 4.37 ± 0.24 relative Trolox equivalent.
The corresponding values for `O=C1O[C@H]([C@@H](O)CO)C(O)=C1O` [Vitamin C] are 0.43 ± 0.03 relative Trolox equivalent, 2.21 and 0.95 ± 0.02 relative Trolox equivalent.
In the case of `O=c1c(-c2ccc(O)cc2)coc2cc(O)cc(O)c12` [Genistein], the ORACB-PE in assay [1] is listed as 2.3 ± 0.16 relative Trolox equivalent. Also, in assay [2], the “Ratio (ORACFL/ORACB-PE)” value is 2.57 and the ORACFL was 5.93 ± 0.45 relative Trolox equivalent.
